Laboratory results: patent US7226945B2 (AstraZeneca AB, priority 2000, dated 2007)
Like-named read-outs stand apart in the source and are kept apart here.

Assays:
ER-β = biological target: T1, ER-β (Homo sapiens, UniProt Q92731); assay: Estrogen receptor binding measurement (competition with [125I]-estradiol), ER-β; tables head the values "FP β-ER Ki"
T1 construct: made in house; host or cells: cell-free: TNT T7 Quick-Coupled rabbit reticulocyte lysate (Promega L1170)
Description: (§1) Receptor protein was prepared by in vitro transcription and translation of these plasmids using the TNT T7 Quick-Coupled reticulocyte lysate system (Promega Cat.#L1170). […] Programmed lysate was then aliquotted and stored frozen at −80° C.
(§2) Compounds were tested in duplicate at half-log concentrations ranging from 10 pM to 3 μM. Compounds were prepared as 1 mM stocks in DMSO, then diluted in the binding-assay buffer (in mM: 20 HEPES, 150 NaCl, 1 EDTA, 6 monothioglycerol and 10 Na2MoO4,; 10% wt/vol glycerol, and pH=7.9) to a series of […] concentrated, 20 μL aliquots in a 96-well plate. Receptor aliquots were thawed on ice, and appropriately diluted (see below) in binding assay buffer. Diluted receptor (30 μL/each) was added to each well. […] Plates containing the final assay mixture were mixed on a shaker for 2 min and incubated overnight (˜16 h) at 4° C.
(§3) Receptor-bound and unbound radioligand was separated by filtration over sephadex columns. Columns (45 μL bed volume) were prepared by adding dry column media (Pharmacia Cat#G-25) to 96-well column templates (Millipore MultiScreen Plates Cat#MAHVN4510). Columns were then saturated with 300 μL of binding-assay buffer and stored at 4° C. Prior to use, stored columns were spun for 10 minutes at 2000 RPM, then washed twice with 200 μL of fresh binding buffer. The binding-assay mixtures (50 μL/each) were then applied to the columns, and an additional elution volume of 35 μL was immediately applied to the column. Receptor-bound radioligand was then eluted from the column by centrifugation for 10 minutes at 2000 RPM. A scintillation cocktail (145 μL) was added to the eluted radioligand/receptor complex, and radio-label was measured by liquid scintillation counting.
(§4) The volume of receptor-programmed reticulocyte lysate to be added to the binding assay was determined independently from two measurements made on each batch of receptor prepared. First, Kis were determined for standard compounds using a series of dilutions of the receptor preparation. Scatchard analysis of ligand binding affinity was performed at the receptor dilutions that produced reported Kis for these compounds and an acceptable signal:noise ratio (˜10).

ER-α = biological target: T2, ER-α (Homo sapiens, UniProt P03372); assay: Estrogen receptor binding measurement (competition with [125I]-estradiol), ER-α; tables head the values "FP α-ER Ki"
T2 construct: made in house; host or cells: cell-free: TNT T7 Quick-Coupled rabbit reticulocyte lysate (Promega L1170)
T2 sequence (P03372 1-595): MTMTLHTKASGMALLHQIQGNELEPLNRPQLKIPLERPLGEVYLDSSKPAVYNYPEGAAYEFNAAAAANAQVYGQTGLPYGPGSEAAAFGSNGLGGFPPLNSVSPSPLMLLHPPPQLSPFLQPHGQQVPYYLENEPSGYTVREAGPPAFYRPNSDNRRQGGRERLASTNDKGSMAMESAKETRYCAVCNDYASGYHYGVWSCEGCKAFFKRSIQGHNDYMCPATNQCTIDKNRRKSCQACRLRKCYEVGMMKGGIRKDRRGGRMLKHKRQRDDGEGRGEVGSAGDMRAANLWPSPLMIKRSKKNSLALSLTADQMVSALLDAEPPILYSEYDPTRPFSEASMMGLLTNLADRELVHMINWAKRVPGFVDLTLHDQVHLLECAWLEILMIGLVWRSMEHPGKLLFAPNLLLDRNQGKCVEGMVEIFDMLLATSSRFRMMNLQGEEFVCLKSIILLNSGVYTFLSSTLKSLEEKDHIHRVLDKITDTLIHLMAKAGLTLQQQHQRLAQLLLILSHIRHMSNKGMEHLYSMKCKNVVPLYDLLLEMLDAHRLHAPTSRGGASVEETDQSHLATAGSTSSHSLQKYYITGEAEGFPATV
Description: as §1, §2, §3, §4

ER = assay: Scatchard analysis of ligand binding affinity on receptor preparations; settings: Scatchard analysis at chosen receptor dilutions; receptor subtype not specified; read-out: KD for [125I]-estradiol
Description: as §4

T1 sequence (Q92731 54-530 limits assumed): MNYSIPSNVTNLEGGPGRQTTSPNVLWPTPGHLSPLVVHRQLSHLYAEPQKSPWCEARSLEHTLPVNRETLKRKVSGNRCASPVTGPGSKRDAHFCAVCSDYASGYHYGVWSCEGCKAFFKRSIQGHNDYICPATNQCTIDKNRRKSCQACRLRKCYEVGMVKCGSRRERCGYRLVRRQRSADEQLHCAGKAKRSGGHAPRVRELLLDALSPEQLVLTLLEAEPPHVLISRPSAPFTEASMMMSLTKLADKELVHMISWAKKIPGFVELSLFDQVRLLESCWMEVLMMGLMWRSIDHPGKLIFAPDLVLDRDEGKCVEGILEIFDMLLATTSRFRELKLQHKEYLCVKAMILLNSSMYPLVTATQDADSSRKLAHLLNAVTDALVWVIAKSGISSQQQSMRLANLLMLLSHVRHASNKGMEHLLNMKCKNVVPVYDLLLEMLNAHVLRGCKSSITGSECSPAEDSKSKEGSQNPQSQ

Structure (SMILES) | Selectivity (ER-β; ER-α Ki / ER-β Ki) | Ki (ER-β; read-out: FP β-ER Ki) | Ki (ER-α; read-out: FP α-ER Ki) | FP Sel. Ratio (ER-β; ER-α Ki / ER-β Ki) | Ki (ER-β; LOQ = 0.01 nM, upper limit 1000 nM, read-out: FP ER-β Ki) | Ki (ER-α; LOQ = 0.01 nM, upper limit 1000 nM, read-out: FP ER-α Ki) | Kd (ER)
C[C@]12CC[C@@H]3c4ccc(O)cc4CC[C@H]3[C@@H]1C[C@@H](I)[C@@H]2O [[^125I]-estradiol, [^125I]-16α-iodo-3,17β-estradiol] |  |  |  |  |  |  | 0.1 to 1 nM
O=c1c(-c2ccc(O)cc2Cl)coc2cc(O)cc(Cl)c12 [Example 2, 5-Chloro-3-(2-chloro-4-hydroxyphenyl)-7-hydroxy-4-oxo-4H-1-benzopyran] | 19 | 16 nM | 300 nM |  |  |  | 
Oc1ccc(C2COc3cc(O)cc(Cl)c3C2)cc1 (stereo not shown) [Example 10, 5-Chloro-7-hydroxy-3-(4 hydroxyphenyl)chroman] | 6.4 | 2 nM | 13 nM |  |  |  | 
O=c1oc2cc(O)cc(Cl)c2cc1-c1ccc(O)cc1 [Example 9, 5-Chloro-7-hydroxy-3-(4-hydroxyphenyl)coumarin] | 35 | 1.8 nM | 62 nM |  |  |  | 
O=c1c(-c2ccc(O)cc2)coc2cc(O)cc(I)c12 [Example 6, 7-Hydroxy-3-(4-hydroxyphenyl)-5-iodo-4-oxo-4H-1-benzopyran] | 38 | 3.9 nM | 147 nM |  |  |  | 
Cc1cc(O)ccc1-c1coc2cc(O)cc(Cl)c2c1=O [Example 3, 5-chloro-7-hydroxy-3-(4-hydroxy-2-methylphenyl)-4-oxo-4H-1-benzopyran] | 18 | 50 nM | 900 nM |  |  |  | 

Second part, led by results:

Selectivity (ER-β; ER-α Ki / ER-β Ki) | Ki (ER-β; read-out: FP β-ER Ki) | Ki (ER-α; read-out: FP α-ER Ki) | FP Sel. Ratio (ER-β; ER-α Ki / ER-β Ki) | Ki (ER-β; LOQ = 0.01 nM, upper limit 1000 nM, read-out: FP ER-β Ki) | Ki (ER-α; LOQ = 0.01 nM, upper limit 1000 nM, read-out: FP ER-α Ki) | Structure (SMILES) | Kd (ER)
7 | 84 nM | 563 nM |  |  |  | CSc1cc(O)cc2occ(-c3ccc(O)cc3)c(=O)c12 [Example 8, 7-Hydroxy-3-(4-hydroxyphenyl)-5-methylthio-4-oxo-4H-1-benzopyran] | 
139 | 4.3 nM | 600 nM |  |  |  | O=c1c(-c2ccc(O)cc2)coc2cc(O)cc(Cl)c12 [Example 1, 5-Chloro-7-hydroxy-3-(4-hydroxyphenyl)-4-oxo-4H-1 benzopyran] | 
>39 | 58 nM | > 1000 nM |  |  |  | N#Cc1cc(O)cc2occ(-c3ccc(O)cc3)c(=O)c12 [Example 7, 5-Cyano-7-hydroxy-3-(4-hydroxyphenyl)-4-oxo-4H-1-benzopyran] | 
 |  |  | 32.8 | 46.1 nM | ≥ 1000 nM | Cc1oc2cc(O)cc(Cl)c2c(=O)c1-c1ccc(O)cc1 [Example 11] | 
90 | 2.8 nM | 251 nM |  |  |  | O=c1c(-c2ccc(O)cc2)coc2cc(O)cc(Br)c12 [Example 5, 5-Bromo-7-hydroxy-3-(4-hydroxyphenyl)-4-oxo-4H-1-benzopyran] | 
>56 | 39 nM | > 2200 nM |  |  |  | O=c1c(-c2ccc(O)cc2)coc2cc(O)cc(F)c12 [Example 4, 5-Fluoro-7-hydroxy-3-(4-hydroxyphenyl)-4-oxo-4H-1-benzopyran] | 
